The target of assay [1] is T1, DNA repair nuclease/redox regulator APEX1 (Homo sapiens, UniProt P27695). The experiment in a line: Inhibition of nuclease activity of APE1 in human glioblastoma cells assessed as reduction in AP site DNA cleavage. Format: cell-based.
The target of assay [2] is T1, DNA repair nuclease/redox regulator APEX1. The experiment in a line: Inhibition of human APE1 using a 5'-TAMRA labelled THF abasic site double-stranded oligodeoxynucleotide as substrate in presence of Mg2+ by fluorescence polarization displacement assay. Background: Polarisation of emitted light reports the rotation of a fluorescent probe.
Assay [3] has the same target. As to the kind of experiment: Inhibition of human APE1 measured every 5 mins for 60 mins by FAM fluorophore based fluorescence assay.
The target is the same in assay [4]. The experiment in a line: Inhibition of N-terminal hexa-His tagged human APE1 expressed in Escherichia coli BL21 (Rosetta) using fluorescein-dabcyl-containing oligonucleotide as substrate measured over 5 mins by high-throughput fluorescence assay.
The target is the same in assay [5]. As to the kind of experiment: Inhibition of APE1 in human HeLa cells assessed as reduction in AP site cleavage 5'-[gamma-32P]CTCGCAAGUGGGTACCGA-3' as substrate after 1 hr. It is filed as cell-based.
Assay [6] has the same target. As to the kind of experiment: Inhibition of His-tagged human APE1 expressed in Escherichia coli M15 assessed as reduction in cleavage of 26 mer substrate to 13 mer products pre-incubated for 30 mins before substrate addition for 15 mins using 5' end [32P] AP site containing 26 mer oligonucleotide by polyacrylamide gel electrophoresis.
The target is the same in assay [7]. The experiment in a line: Inhibition of human APE1 assessed as reduction in abasic sites DNA cleavage using 6-FAM/TAMRA labelled 17-Tphi as substrate by fluorescence-based assay.
For assay [8] the target is unchanged. As to the kind of experiment: Inhibition of […] activity of full length N-terminal hexa-His SUMO-fused human APE1 using HEX-labeled THF oligonucleotide as substrate preincubated for 30 to 120 mins followed by substrate addition measured after 15 mins by fluorescence assay.
For assay [9] the target is unchanged. The experiment in a line: Inhibition of recombinant human APE1 using 5'-F-GCCCCCXGGGGACGTACGATATCCCGCTCC-3' as substrate preincubated for 10 mins followed by substrate addition measured at 5 mins intervals for 30 mins by fluorescence-based assay.
The target is the same in assay [10]. The experiment in a line: Inhibition of recombinant human APE1 using a 5'-FAM/3'-Dabsyl labelled double-stranded DNA as substrate after 30 mins by fluorescence-based assay.
The test system of assay [11] is Panel NCI-60 (60 carcinoma cell lines). As to the kind of experiment: Growth inhibition in human NCI60 cells after 72 hrs by CellTiterGlo assay. It is filed as functional. A general note: ATP-based viability assays read luminescence as a measure of living cells.
For assay [12], the target named is T1, DNA repair nuclease/redox regulator APEX1. As to the kind of experiment: Inhibition of APE1 in human HeLa cells. It is filed as cell-based.
Assay [13] has the same target. The experiment in a line: Binding affinity to full length human APE1 expressed in Escherichia coli BL21/DE3.

SMILES strings stand for the structures.

T1 sequence (P27695 whole entry): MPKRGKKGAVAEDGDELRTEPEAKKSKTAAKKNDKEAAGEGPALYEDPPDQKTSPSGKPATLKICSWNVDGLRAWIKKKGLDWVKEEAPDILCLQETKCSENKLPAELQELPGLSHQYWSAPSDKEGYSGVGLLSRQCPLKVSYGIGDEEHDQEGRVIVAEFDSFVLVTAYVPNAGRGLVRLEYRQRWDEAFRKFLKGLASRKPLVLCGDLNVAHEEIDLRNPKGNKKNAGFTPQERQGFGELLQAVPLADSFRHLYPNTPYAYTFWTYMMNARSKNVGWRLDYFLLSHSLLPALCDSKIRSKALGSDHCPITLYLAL

Consider `O=c1oc(-c2ccccc2F)nc2cc(Cl)ccc12`, for which, in assay [1], the IC50 came to 1.6 µM.

With `COc1cc2c(ccc3cc(OC)c(OC)c(O)c32)cc1O`, the IC50 in assay [2] was found to be 0.4 µM.

In turn, `CC1=C/C(=C(/c2ccc(O)c(C)c2)c2ccccc2C(=O)O)C=CC1=O` had a concentration for half-maximal inhibition (IC50) in assay [3] of 1.7 µM. `Cc1ccc(C)n1-c1ccc(OCC(=O)O)cc1` yielded an IC50 in assay [4] of 1.7 µM. On the same count and under the same terms, the figure for `Cc1cc(C)c2c(N)c3cccc(C)c3nc2n1` is 2.1 µM. As for `Nc1c(S(N)(=O)=O)cc(S(N)(=O)=O)cc1S(N)(=O)=O`, the midpoint of inhibition in assay [3], the IC50, lay at 1.4 µM. On to `CCOC(=O)c1cc(-c2ccc(/C=C3/C(=O)N(c4ccc(C(=O)O)cc4)N=C3C)o2)ccc1Cl`, for which, in assay [2], the IC50 turned out to be 6.8 µM. Still for that read-out and setting: the figure for `O=C1NC(=O)N(Cc2ccco2)C(=O)/C1=C/C=C/c1ccco1` is 2.8 µM. Turning to `O=C(O)c1cc2cccc([N+](=O)[O-])c2[nH]1`, the IC50 in [5] stood at 3.06 µM. As for `O=C(Nc1cccc(Cl)c1)c1noc2c1CCC2`, in [4], the IC50 was 1.6 µM. For `COc1cccc(CNC(=O)c2cccc(C(=O)O)c2OC)c1`, in assay [6], the IC50 worked out at 19 µM. As for `C=C1S/C(=N\c2ccccc2Cl)N(C(=O)c2sc3ccccc3c2Cl)C12CCCCC2`, the IC50 in [1] was 1.4 µM. Regarding `COc1ccc(CNC(=O)c2cccc(C(=O)O)c2OC)cc1OC`, the IC50 in assay [6] amounted to 18 µM. Take `Cc1sc(Nc2cc(Cl)cc(Cl)c2)nc1-c1ccc(-c2ccccc2F)cc1`: in assay [1], the IC50 was 0.9 µM. As for `c1cc2ccc3cc2cc1CNCCNCCNCc1ccc2ccc(cc2c1)CNCCNCCNC3`, the IC50 in assay [7] turned out to be 0.057 µM. The compound `CCCCCCCCC/C(=C\C1=C(C)C(=O)C(OC)=C(OC)C1=O)C(=O)NOC` came in with an IC50 in assay [8] of 8.5 µM. Turning to `O=S(=O)(Oc1ccc(-c2ccc(OS(=O)(=O)c3ccc(Cl)c(Cl)c3)cc2)cc1)c1ccc(Cl)c(Cl)c1`, the half-inhibitory concentration (IC50) in assay [1] came out at 1.8 µM. On the same count and under the same terms, the figure for `CC(C)(C)c1ccc(S(=O)(=O)Oc2ccc(-c3ccc(Oc4c(Cl)cccc4[N+](=O)[O-])cc3)cc2)cc1` is 1.7 µM.

In the case of `COc1c(C(=O)O)cccc1C(=O)NCc1ccc(Cl)c(Cl)c1`, in assay [6], the IC50 was 18 µM. For `O=C(OCC(=O)N1NC(c2ccc3ccccc3c2)=C[C@@H]1c1ccccc1)c1ccc([N+](=O)[O-])s1`, the IC50 in [9] is 3 µM.

In the case of `O=C(O)CC[C@H]1N[C@@]2(C(=O)Nc3c(Cl)cccc32)[C@H]2C(=O)N(Cc3ccc4c(c3)OCO4)C(=O)[C@@H]12`, in [10], the IC50 was determined as 1.8 µM.

For the compound `c1cc2ccc3cc2cc1CNCCOCCNCc1ccc2ccc(cc2c1)CNCCOCCNC3`, the IC50 in assay [7] was determined as 0.055 µM. Consider `CC(C)(C)c1ccc(OC(=O)c2sc3ccccc3c2Cl)c(C(C)(C)C)c1`, for which the IC50 in assay [1] was determined as 0.8 µM. As for `O=C(c1cc2ccccc2o1)[C@@H](O)c1nc2ccccc2s1`, in [9], the IC50 came out at 2 µM.

Consider `Cc1sc(-c2ccc(Cl)cc2)nc1-c1ccc(-c2ccccc2F)cc1`, for which, in assay [1], the IC50 turned out to be 1.3 µM. Take `COc1c(C(=O)O)cccc1C(=O)NCc1cccc(Cl)c1`: the IC50 in assay [6] amounted to 16 µM. Turning to `O=c1oc(-c2ccc(Cl)cc2Cl)nc2ccc([N+](=O)[O-])cc12`, in [1], the IC50 was determined as 2 µM. Compound `CCn1c2ccccc2c2cc(/C=N/Nc3cc(C)nc4cc5c(cc34)OCO5)ccc21` came in with a GI50 in assay [11] of 4.2 µM. For the compound `O=[N+]([O-])c1cccc(S(=O)(=O)[N-]c2nc3ccccc3nc2-[n+]2ccc(Cc3ccccc3)cc2)c1`, in assay [10], the IC50 turned out to be 6.8 µM. With `Brc1cc(-c2cc(Br)c(Br)c(Br)c2)cc(Br)c1Br`, the IC50 in assay [1] stood at 0.2 µM. In the case of `O=C(CSc1ncn[nH]1)Nc1cccc2c1C(=O)c1ccccc1C2=O`, the IC50 in [12] came to 4 µM.

In turn, `Cc1coc2c1C(=O)C(=O)c1c-2ccc2c1CCCC2(C)C` [TANSHINONE IIA] gave a Kd in assay [13] of 0.00088 µM.

The IC50 is the concentration at which inhibition is half-maximal. A word on the GI50: it is the concentration that inhibits growth by half. Low readings indicate more potent growth inhibition, high ones less potent growth inhibition. Broadly, the Kd is the equilibrium constant for the complex coming apart. A low value points to a tighter complex.

The values are drawn from ChEMBL document CHEMBL4184129, “Inhibitors of nuclease and redox activity of apurinic/apyrimidinic endonuclease 1/redox effector factor 1 (APE1/Ref-1)” (Bioorg Med Chem, 2017).
